Results reported in article PMC4657098, “A Review of the Updated Pharmacophore for the Alpha 5 GABA(A) Benzodiazepine Receptor Model” (International Journal of Medicinal Chemistry, 2015).

What was measured:
α2β3γ2 GABAA/BzR = α2β3γ2 GABAA/BzR (Homo sapiens, UniProt P18507+P47869); assay: Competition binding to HEK cell membranes, α2β3γ2; design: expressed in transfected cells; conditions: Ki α2
5ht7 = target: T1, 5ht7 (Homo sapiens, UniProt P34969); assay: PDSP receptor binding, 5ht7; conditions: PDSP primary screen at 10 µM
T1 construct: purchased NIMH PDSP (Psychoactive Drug Screening Program, Roth lab, Case Western Reserve)

CB1 = target: T2, CB1 (Homo sapiens, UniProt P21554); assay: PDSP receptor binding, CB1; conditions: PDSP primary screen at 10 µM
T2 construct: purchased NIMH PDSP (Psychoactive Drug Screening Program, Roth lab, Case Western Reserve)

Beta1 = target: T3, Beta1 (Homo sapiens, UniProt P08588); assay: PDSP receptor binding, Beta1; conditions: PDSP primary screen at 10 µM
T3 construct: purchased NIMH PDSP (Psychoactive Drug Screening Program, Roth lab, Case Western Reserve)

5ht1d = target: T4, 5ht1d (Homo sapiens, UniProt P28221); assay: PDSP receptor binding, 5ht1d; conditions: PDSP primary screen at 10 µM
T4 construct: purchased NIMH PDSP (Psychoactive Drug Screening Program, Roth lab, Case Western Reserve)

NMDA = assay: PDSP receptor binding, NMDA; conditions: PDSP primary screen at 10 µM
5ht6 = target: T5, 5ht6 (Homo sapiens, UniProt P50406); assay: PDSP receptor binding, 5ht6; conditions: PDSP primary screen at 10 µM
T5 construct: purchased NIMH PDSP (Psychoactive Drug Screening Program, Roth lab, Case Western Reserve)

M3 = target: T6, M3 (Homo sapiens, UniProt P20309); assay: PDSP receptor binding, M3; conditions: PDSP primary screen at 10 µM
T6 construct: purchased NIMH PDSP (Psychoactive Drug Screening Program, Roth lab, Case Western Reserve)

α1β3γ2 GABAA receptor = conditions: cited from earlier work
5ht1e = target: T7, 5ht1e (Homo sapiens, UniProt P28566); assay: PDSP receptor binding, 5ht1e; conditions: PDSP primary screen at 10 µM
T7 construct: purchased NIMH PDSP (Psychoactive Drug Screening Program, Roth lab, Case Western Reserve)

[1] = system: Bz BS of GABA(A) receptors; conditions: Supplement Table 1; cited from earlier work
[2] = PDSP receptor binding, β1B; conditions: PDSP primary screen at 10 µM
α4β3γ2 GABAA/BzR = target: T8, α4β3γ2 GABAA/BzR (Homo sapiens, UniProt P18507+P48169); assay: biochemical; type: binding
T8 construct: expressed in transfected cells; host or cells: LTK cells (given for XLi-093 only)

5ht1a = target: T9, 5ht1a (Homo sapiens, UniProt P08908); assay: PDSP receptor binding, 5ht1a; conditions: PDSP primary screen at 10 µM
T9 construct: purchased NIMH PDSP (Psychoactive Drug Screening Program, Roth lab, Case Western Reserve)

MOR = target: T10, MOR (Homo sapiens, UniProt P35372); assay: PDSP receptor binding, MOR; conditions: PDSP primary screen at 10 µM
T10 construct: purchased NIMH PDSP (Psychoactive Drug Screening Program, Roth lab, Case Western Reserve)

α3β3γ2 GABAA/BzR = α3β3γ2 GABAA/BzR (Homo sapiens, UniProt P18507+P34903); assay: Competition binding to HEK cell membranes, α3β3γ2; design: expressed in transfected cells; conditions: Ki α3
5ht2b = target: T11, 5ht2b (Homo sapiens, UniProt P41595); assay: PDSP receptor binding, 5ht2b; conditions: PDSP primary screen at 10 µM
T11 construct: purchased NIMH PDSP (Psychoactive Drug Screening Program, Roth lab, Case Western Reserve)

α4β3γ2 BzR/GABA(A) = conditions: Figure 1; LTK cells; read-out: Binding affinity α4; cited from earlier work
α2B = target: T12, α2B (Homo sapiens, UniProt P18089); assay: PDSP receptor binding, α2B; conditions: PDSP primary screen at 10 µM
T12 construct: purchased NIMH PDSP (Psychoactive Drug Screening Program, Roth lab, Case Western Reserve)

α2A = target: T13, α2A (Homo sapiens, UniProt P08913); assay: PDSP receptor binding, α2A; conditions: PDSP primary screen at 10 µM
T13 construct: purchased NIMH PDSP (Psychoactive Drug Screening Program, Roth lab, Case Western Reserve)

M2 = target: T14, M2 (Homo sapiens, UniProt P08172); assay: PDSP receptor binding, M2; conditions: PDSP primary screen at 10 µM
T14 construct: purchased NIMH PDSP (Psychoactive Drug Screening Program, Roth lab, Case Western Reserve)

α5β3γ2 BzR/GABA(A) = conditions: text b7; read-out: Ki at the α5β3γ2 subtype; cited from earlier work
SERT = target: T15, SERT (Homo sapiens, UniProt P31645); assay: PDSP receptor binding, SERT; conditions: PDSP primary screen at 10 µM
T15 construct: purchased NIMH PDSP (Psychoactive Drug Screening Program, Roth lab, Case Western Reserve)

α5β3γ2 GABAA receptor = target: T16, α5β3γ2 GABAA receptor (Homo sapiens, UniProt P18507+P31644); assay: Oocyte electrophysiology, α5β3γ2; type: cell-based
T16 construct: expressed in transfected cells; host or cells: Xenopus oocytes

H3 = target: T17, H3 (Homo sapiens, UniProt Q9Y5N1); assay: PDSP receptor binding, H3; conditions: PDSP primary screen at 10 µM
T17 construct: purchased NIMH PDSP (Psychoactive Drug Screening Program, Roth lab, Case Western Reserve)

5ht3 = target: T18, 5ht3 (Homo sapiens, UniProt P46098); assay: PDSP receptor binding, 5ht3; conditions: PDSP primary screen at 10 µM
T18 construct: purchased NIMH PDSP (Psychoactive Drug Screening Program, Roth lab, Case Western Reserve)

H2 = target: T19, H2 (Homo sapiens, UniProt P25021); assay: PDSP receptor binding, H2; conditions: PDSP primary screen at 10 µM
T19 construct: purchased NIMH PDSP (Psychoactive Drug Screening Program, Roth lab, Case Western Reserve)

α2β3γ2 GABAA receptor = conditions: cited from earlier work
H4 = target: T20, H4 (Homo sapiens, UniProt Q9H3N8); assay: PDSP receptor binding, H4; conditions: PDSP primary screen at 10 µM
T20 construct: purchased NIMH PDSP (Psychoactive Drug Screening Program, Roth lab, Case Western Reserve)

DOR = target: T21, DOR (Homo sapiens, UniProt P41143); assay: PDSP receptor binding, DOR; conditions: PDSP primary screen at 10 µM
T21 construct: purchased NIMH PDSP (Psychoactive Drug Screening Program, Roth lab, Case Western Reserve)

α3β3γ2 GABAA receptor = conditions: cited from earlier work
α6β3γ2 BzR/GABA(A) = conditions: Figure 1; LTK cells; read-out: Binding affinity α6; cited from earlier work
α2β3γ2 BzR/GABA(A) = conditions: Figure 1; LTK cells; read-out: Binding affinity α2; cited from earlier work
MDR = assay: PDSP receptor binding, MDR; conditions: PDSP primary screen at 10 µM
DAT = target: T22, DAT (Homo sapiens, UniProt Q01959); assay: PDSP receptor binding, DAT; conditions: PDSP primary screen at 10 µM
T22 construct: purchased NIMH PDSP (Psychoactive Drug Screening Program, Roth lab, Case Western Reserve)

α1A = target: T23, α1A (Homo sapiens, UniProt P35348); assay: PDSP receptor binding, α1A; conditions: PDSP primary screen at 10 µM
T23 construct: purchased NIMH PDSP (Psychoactive Drug Screening Program, Roth lab, Case Western Reserve)

KOR = KOR (Homo sapiens, UniProt P41145); assay: PDSP receptor binding, KOR; conditions: Case Western Reserve University, read-out: KOR Ki (secondary binding)
[3] = system: other receptors (PDSP panel); assay: Full PDSP panel receptor binding; conditions: NIMH PDSP, Case Western Reserve
σ2 = assay: PDSP receptor binding, σ2; conditions: PDSP primary screen at 10 µM
M1 = target: T24, M1 (Homo sapiens, UniProt P11229); assay: PDSP receptor binding, M1; conditions: PDSP primary screen at 10 µM
T24 construct: purchased NIMH PDSP (Psychoactive Drug Screening Program, Roth lab, Case Western Reserve)

[4] = system: GABA(A) receptor subtypes; conditions: up to a concentration of 1 μM; any one of the subtypes tested; cited from earlier work
M5 = target: T25, M5 (Homo sapiens, UniProt P08912); assay: PDSP receptor binding, M5; conditions: PDSP primary screen at 10 µM
T25 construct: purchased NIMH PDSP (Psychoactive Drug Screening Program, Roth lab, Case Western Reserve)

## C#Cc1ccc2c(c1)C(=O)N(C)Cc1c(C(=O)OCCCOC(=O)c3ncn4c3CN(C)C(=O)c3cc(C#C)ccc3-4)ncn1-2 [XLi-093 (4), 1,3-Bis(8-acetyleno-5,6-dihydro-5-methyl-6-oxo-4H-imidazo[1,5a][1,4]benzodiazepine-3-carboxy) propyl diester]
α2β3γ2 GABAA/BzR
  Ki: > 1000 nM
5ht7
  5ht7 binding: ∗ (“∗” indicates “primary missed” (<50% inhibition at 10 µM))
CB1
  CB1 binding: ∗ (“∗” indicates “primary missed” (<50% inhibition at 10 µM))
Beta1
  Beta1 binding: ∗ (“∗” indicates “primary missed” (<50% inhibition at 10 µM))
5ht1d
  5ht1d binding: ∗ (“∗” indicates “primary missed” (<50% inhibition at 10 µM))
NMDA
  NMDA binding: ∗ (“∗” indicates “primary missed” (<50% inhibition at 10 µM))
5ht6
  5ht6 binding: ∗ (“∗” indicates “primary missed” (<50% inhibition at 10 µM))
M3
  M3 binding: ∗ (“∗” indicates “primary missed” (<50% inhibition at 10 µM))
α1β3γ2 GABAA receptor; at 1 μM
  modulation of GABA induced chloride flux, α1β3γ2: did not modulate
α1β3γ2 GABAA receptor
  influence on benzodiazepine (Valium) stimulation of GABA-induced current, α1β3γ2: barely influenced
5ht1e
  5ht1e binding: ∗ (“∗” indicates “primary missed” (<50% inhibition at 10 µM))
[1]
  modulation: antagonist
[2]
  β1B binding: ∗ (“∗” indicates “primary missed” (<50% inhibition at 10 µM))
α4β3γ2 GABAA/BzR
  Ki: 1550 nM
5ht1a
  5ht1a binding: ∗ (“∗” indicates “primary missed” (<50% inhibition at 10 µM))
MOR
  MOR binding: ∗ (“∗” indicates “primary missed” (<50% inhibition at 10 µM))
α3β3γ2 GABAA/BzR
  Ki: 858 nM
5ht2b
  5ht2b binding: ∗ (“∗” indicates “primary missed” (<50% inhibition at 10 µM))
α4β3γ2 BzR/GABA(A)
  Ki: 1550 nM
α2B
  α2B binding: ∗ (“∗” indicates “primary missed” (<50% inhibition at 10 µM))
α2A
  α2A binding: ∗ (“∗” indicates “primary missed” (<50% inhibition at 10 µM))
M2
  M2 binding: ∗ (“∗” indicates “primary missed” (<50% inhibition at 10 µM))
α5β3γ2 BzR/GABA(A)
  Ki: 15 nM
SERT
  SERT binding: ∗ (“∗” indicates “primary missed” (<50% inhibition at 10 µM))
α5β3γ2 GABAA receptor
  efficacy type at the α5 subtype: antagonist
H3
  H3 binding: ∗ (“∗” indicates “primary missed” (<50% inhibition at 10 µM))
5ht3
  5ht3 binding: ∗ (“∗” indicates “primary missed” (<50% inhibition at 10 µM))
H2
  H2 binding: ∗ (“∗” indicates “primary missed” (<50% inhibition at 10 µM))
α2β3γ2 GABAA receptor; at 1 μM
  modulation of GABA induced chloride flux, α2β3γ2: did not modulate
α2β3γ2 GABAA receptor
  influence on benzodiazepine (Valium) stimulation of GABA-induced current, α2β3γ2: barely influenced
H4
  H4 binding: ∗ (“∗” indicates “primary missed” (<50% inhibition at 10 µM))
DOR
  DOR binding: ∗ (“∗” indicates “primary missed” (<50% inhibition at 10 µM))
α3β3γ2 GABAA receptor; at 1 μM
  modulation of GABA induced chloride flux, α3β3γ2: did not modulate
α3β3γ2 GABAA receptor
  influence on benzodiazepine (Valium) stimulation of GABA-induced current, α3β3γ2: barely influenced
α6β3γ2 BzR/GABA(A)
  Ki: > 2000 nM
α2β3γ2 BzR/GABA(A)
  Ki: > 1000 nM
MDR
  MDR binding: ∗ (“∗” indicates “primary missed” (<50% inhibition at 10 µM))
DAT
  DAT binding: ∗ (“∗” indicates “primary missed” (<50% inhibition at 10 µM))
α1A
  α1A binding: ∗ (“∗” indicates “primary missed” (<50% inhibition at 10 µM))
KOR
  Ki: 2020 nM
[3]
  full panel receptor binding: do not bind to other receptors at levels of concern
σ2
  σ2 binding: ∗ (“∗” indicates “primary missed” (<50% inhibition at 10 µM))
M1
  M1 binding: ∗ (“∗” indicates “primary missed” (<50% inhibition at 10 µM))
[4]
  triggering of chloride flux: did not trigger chloride flux
M5
  M5 binding: ∗ (“∗” indicates “primary missed” (<50% inhibition at 10 µM))
